According to patent publication US12624018B1, “Inhibitors of RIPK2 and medical uses thereof” (Odyssey Therapeutics, Inc., priority 2022, dated 2026):

target: T1, RIPK2 enzyme (Homo sapiens, UniProt O43353); experiment: RIPK2 inhibition (ADP-Glo Kinase Assay); format: biochemical; details: RIPK2 5 nM, ATP 150 μM, MBP substrate, read-out: RIPK2 IC50
T1 construct: purchased Carna 09-128
Outline: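 Swine MBP substrate; compound and 5 nM RIPK2 first mixed for 30 min at room temperature; buffer pH 7.5 HEPES 50 mM with 10 mM MgCl2, 2 mM DTT, 1 mM EGTA, Brij-35, BSA.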

T1 sequence (O43353 1-299 limits assumed): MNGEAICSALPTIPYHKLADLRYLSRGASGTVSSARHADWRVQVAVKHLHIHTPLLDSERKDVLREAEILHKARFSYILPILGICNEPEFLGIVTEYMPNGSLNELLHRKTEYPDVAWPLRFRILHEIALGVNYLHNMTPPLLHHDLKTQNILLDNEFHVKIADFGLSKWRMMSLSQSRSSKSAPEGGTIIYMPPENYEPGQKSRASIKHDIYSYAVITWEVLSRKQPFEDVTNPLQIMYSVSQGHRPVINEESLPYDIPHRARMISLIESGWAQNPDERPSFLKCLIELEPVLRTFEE

IC50, < 2.5 nM:
Cc1c(Oc2ccnc3ccc(C(=O)N4CCOCC4)cc23)ccc(CC(=O)Nc2cnn(C(C)(C)C)c2)c1F [Compound 355, N-(1-(tert-butyl)-1H-pyrazol-4-yl)-2-(2-fluoro-3-methyl-4-((6-(morpholine-4-carbonyl)quinolin-4-yl)oxy)phenyl) acetamide]
Cc1c(Oc2ccnc3ccc(C(=O)N4CCNCC4)cc23)ccc(CC(=O)Nc2cnn(C(C)(C)C)c2)c1F [Compound 356, N-(1-(tert-butyl)-1H-pyrazol-4-yl)-2-(2-fluoro-3-methyl-4-((6-(piperazine-1-carbonyl)quinolin-4-yl)oxy)phenyl) acetamide]
Cc1c(Oc2ccnc3ccc(C(=O)N4CCC(O)CC4)cc23)ccc(CC(=O)Nc2cnn(C(C)(C)C)c2)c1F [Compound 357, N-(1-(tert-butyl)-1H-pyrazol-4-yl)-2-(2-fluoro-4-((6-(4-hydroxy-piperidine-1-carbonyl)quinolin-4-yl)oxy)-3-methyl-phenyl) acetamide]
Cc1cc(CC(=O)Nc2cnn(C(C)(C)C)c2)c(F)cc1Oc1ccnc2ccc(C(=O)O)cc12 [Compound 358, 4-(4-(2-((1-(tert-butyl)-1H-pyrazol-4-yl)amino)-2-oxoethyl)-5-fluoro-2-methyl-phenoxy) quinoline-6-carboxylic acid]
Cc1cc(CC(=O)Nc2cnn(C(C)(C)C)c2)c(F)cc1Oc1ccnc2ccc(C(=O)N(C)C)cc12 [Compound 361, 4-(4-(2-((1-(tert-butyl)-1H-pyrazol-4-yl)amino)-2-oxoethyl)-5-fluoro-2-methyl-phenoxy)-N,N-dimethyl-quinoline-6-carboxamide]
Cc1cc(CC(=O)Nc2cnn(C(C)(C)C)c2)c(F)cc1Oc1ccnc2ccc(C(=O)NCC(F)(F)F)cc12 [Compound 362, 4-(4-(2-((1-(tert-butyl)-1H-pyrazol-4-yl)amino)-2-oxoethyl)-5-fluoro-2-methyl-phenoxy)-N-(2,2,2-trifluoroethyl) quinoline-6-carboxamide]
CCNC(=O)c1ccc2nccc(Oc3cc(F)c(CC(=O)Nc4cnn(C(C)(C)C)c4)cc3C)c2c1 [Compound 363, 4-(4-(2-((1-(tert-butyl)-1H-pyrazol-4-yl)amino)-2-oxoethyl)-5-fluoro-2-methyl-phenoxy)-N-ethyl-quinoline-6-carboxamide]
Cc1cc(CC(=O)Nc2cnn(C(C)(C)C)c2)c(F)cc1Oc1ccnc2ccc(C(=O)NCCO)cc12 [Compound 364, 4-(4-(2-((1-(tert-butyl)-1H-pyrazol-4-yl)amino)-2-oxoethyl)-5-fluoro-2-methyl-phenoxy)-N-(2-hydroxy-ethyl) quinoline-6-carboxamide]
Cc1cc(CC(=O)Nc2cnn(C(C)(C)C)c2)c(F)cc1Oc1ccnc2ccc(C(=O)N(C)CCO)cc12 [Compound 365, 4-(4-(2-((1-(tert-butyl)-1H-pyrazol-4-yl)amino)-2-oxoethyl)-5-fluoro-2-methyl-phenoxy)-N-(2-hydroxy-ethyl)-N-methyl-quinoline-6-carboxamide]
Cc1cc(CC(=O)Nc2cnn(C(C)(C)C)c2)c(F)cc1Oc1ccnc2ccc(C(=O)N(CCO)CCO)cc12 [Compound 366, 4-(4-(2-((1-(tert-butyl)-1H-pyrazol-4-yl)amino)-2-oxoethyl)-5-fluoro-2-methyl-phenoxy)-N,N-bis(2-hydroxyethyl) quinoline-6-carboxamide]
COCCNC(=O)c1ccc2nccc(Oc3cc(F)c(CC(=O)Nc4cnn(C(C)(C)C)c4)cc3C)c2c1 [Compound 367, 4-(4-(2-((1-(tert-butyl)-1H-pyrazol-4-yl)amino)-2-oxoethyl)-5-fluoro-2-methyl-phenoxy)-N-(2-methoxy-ethyl) quinoline-6-carboxamide]
Cc1cc(CC(=O)Nc2cnn(C(C)(C)C)c2)c(F)cc1Oc1ccnc2ccc(C(=O)N3CCC3)cc12 [Compound 369, 2-(4-((6-(azetidine-1-carbonyl)quinolin-4-yl)oxy)-2-fluoro-5-methyl-phenyl)-N-(1-(tert-butyl)-1H-pyrazol-4-yl)acetamide]
Cc1cc(CC(=O)Nc2cnn(C(C)(C)C)c2)c(F)cc1Oc1ccnc2ccc(C(=O)N3CC(F)C3)cc12 [Compound 370, N-(1-(tert-butyl)-1H-pyrazol-4-yl)-2-(2-fluoro-4-((6-(3-fluoro-azetidine-1-carbonyl)quinolin-4-yl)oxy)-5-methyl-phenyl) acetamide]
Cc1cc(CC(=O)Nc2cnn(C(C)(C)C)c2)c(F)cc1Oc1ccnc2ccc(C(=O)N3CC(C#N)C3)cc12 [Compound 371, N-(1-(tert-butyl)-1H-pyrazol-4-yl)-2-(4-((6-(3-cyano-azetidine-1-carbonyl)quinolin-4-yl)oxy)-2-fluoro-5-methyl-phenyl) acetamide]
Cc1cc(CC(=O)Nc2cnn(C(C)(C)C)c2)c(F)cc1Oc1ccnc2ccc(C(=O)N3CC4(COC4)C3)cc12 [Compound 372, 2-(4-((6-(2-oxa-6-azaspiro[3.3]heptane-6-carbonyl)quinolin-4-yl)oxy)-2-fluoro-5-methyl-phenyl)-N-(1-(tert-butyl)-1H-pyrazol-4-yl)acetamide]
Cc1cc(CC(=O)Nc2cnn(C(C)(C)C)c2)c(F)cc1Oc1ccnc2ccc(C(=O)N3CC(O)C3)cc12 [Compound 373, N-(1-(tert-butyl)-1H-pyrazol-4-yl)-2-(2-fluoro-4-((6-(3-hydroxy-azetidine-1-carbonyl)quinolin-4-yl)oxy)-5-methylphenyl) acetamide]
Cc1cc(CC(=O)Nc2cnn(C(C)(C)C)c2)c(F)cc1Oc1ccnc2ccc(C(=O)N3CC(N)C3)cc12 [Compound 374, 2-(4-((6-(3-amino-azetidine-1-carbonyl)quinolin-4-yl)oxy)-2-fluoro-5-methyl-phenyl)-N-(1-(tert-butyl)-1H-pyrazol-4-yl)acetamide]
Cc1cc(CC(=O)Nc2cnn(C(C)(C)C)c2)c(F)cc1Oc1ccnc2ccc(C(=O)N3CCCC3)cc12 [Compound 377, N-(1-(tert-butyl)-1H-pyrazol-4-yl)-2-(2-fluoro-5-methyl-4-((6-(pyrrolidine-1-carbonyl)quinolin-4-yl)oxy)phenyl) acetamide]
Cc1cc(CC(=O)Nc2cnn(C(C)(C)C)c2)c(F)cc1Oc1ccnc2ccc(C(=O)N3CCOCC3)cc12 [Compound 378, N-(1-(tert-butyl)-1H-pyrazol-4-yl)-2-(2-fluoro-5-methyl-4-((6-(morpholine-4-carbonyl)quinolin-4-yl)oxy)phenyl) acetamide]
Cc1cc(CC(=O)Nc2cnn(C(C)(C)C)c2)c(F)cc1Oc1ccnc2ccc(C(=O)N3CCNCC3)cc12 [Compound 379, N-(1-(tert-butyl)-1H-pyrazol-4-yl)-2-(2-fluoro-5-methyl-4-((6-(piperazine-1-carbonyl)quinolin-4-yl)oxy)phenyl) acetamide]
Cc1cc(CC(=O)Nc2cnn(C(C)(C)C)c2)c(F)cc1Oc1ccnc2ccc(C(=O)N3CCC(O)CC3)cc12 [Compound 380, N-(1-(tert-butyl)-1H-pyrazol-4-yl)-2-(2-fluoro-4-((6-(4-hydroxy-piperidine-1-carbonyl)quinolin-4-yl)oxy)-5-methyl-phenyl) acetamide]
Cc1cc(CC(=O)Nc2cnn(C(C)(C)C)c2)c(F)cc1Oc1ccnc2ccc(P(C)(C)=O)cc12 [Compound 381, N-(1-(tert-butyl)-1H-pyrazol-4-yl)-2-(4-((6-(dimethylphosphoryl)quinolin-4-yl)oxy)-2-fluoro-5-methylphenyl) acetamide]
COc1cc2nccc(Oc3ccc(CC(=O)Nc4cnn(C(C)(C)C)c4)c(F)c3C)c2cc1P(C)(C)=O [Compound 382, N-(1-(tert-butyl)-1H-pyrazol-4-yl)-2-(4-((6-(dimethylphosphoryl)-7-methoxyquinolin-4-yl)oxy)-2-fluoro-3-methylphenyl) acetamide]
Cc1c(Oc2ccnc3ccc(P(C)(C)=O)cc23)ccc(CC(=O)Nc2cc(C(C)(C)C)n[nH]2)c1F [Compound 383, N-(5-(tert-butyl)-1H-pyrazol-3-yl)-2-(4-((6-(dimethylphosphoryl)quinolin-4-yl)oxy)-2-fluoro-3-methylphenyl) acetamide]
Cc1c(Oc2ccnc3ccc(C(=O)N4C[C@@H](C)O[C@@H](C)C4)cc23)ccc(CC(=O)Nc2cnn(C(C)(C)C)c2)c1F [Compound 384, N-(1-(tert-butyl)-1H-pyrazol-4-yl)-2-(4-((6-((2R,6S)-2,6-dimethyl-morpholine-4-carbonyl)quinolin-4-yl)oxy)-2-fluoro-3-methyl-phenyl) acetamide]
Cc1c(Oc2ccnc3ccc(C(=O)N4C[C@@H](C)N[C@@H](C)C4)cc23)ccc(CC(=O)Nc2cnn(C(C)(C)C)c2)c1F [Compound 385, N-(1-(tert-butyl)-1H-pyrazol-4-yl)-2-(4-((6-((3R,5S)-3,5-dimethyl-piperazine-1-carbonyl)quinolin-4-yl)oxy)-2-fluoro-3-methylphenyl) acetamide]
Cc1c(Oc2ccnc3ccc(S(=O)(=O)N4C[C@@H](C)O[C@@H](C)C4)cc23)ccc(CC(=O)Nc2cnn(C(C)(C)C)c2)c1F [Compound 386, N-(1-(tert-butyl)-1H-pyrazol-4-yl)-2-(4-((6-(((2R,6S)-2,6-dimethylmorpholino)sulfonyl)quinolin-4-yl)oxy)-2-fluoro-3-methylphenyl)acetamide]

same assay, conditions: RIPK2 IC50 (nM), RIPK2 5 nM, ATP 150 μM, MBP substrate

IC50, < 2.5 nM:
COCCN(C)C(=O)c1ccc2nccc(Oc3cc(F)c(CC(=O)Nc4cnn(C(C)(C)C)c4)cc3C)c2c1 [Compound 368, 4-(4-(2-((1-(tert-butyl)-1H-pyrazol-4-yl)amino)-2-oxoethyl)-5-fluoro-2-methyl-phenoxy)-N-(2-methoxy-ethyl)-N-methyl-quinoline-6-carboxamide]
